# According to patent US8618151B2, “Inhibitors of HCV NS5A” (Presidio Pharmaceuticals, Inc., priority 2008, dated 2013):
# System: HCV genotype 1b replicon
# Test: HCV replicon assay (1b_Huh-Luc/Neo-ET cell line, luciferase readout)
# Type: cell-based
# Details: Hepatitis C virus, Huh-7, 72 h, read-out: Inhibition of HCV genotype 1b
# In short: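 Luciferase activity (Bright-Glo) after 72 h compound exposure, in triplicate, measured replicon levels in Huh 7-derived 1b_Huh-Luc/Neo-ET cells. EC50 was fitted from percent-of-control values and determined in repeat runs.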
row,Structure (SMILES),EC50 [nM]
1,COC(=O)N[C@H](C(=O)N1CCC[C@H]1c1ncc(-c2ccc3cc(-c4ccc(-c5cnc([C@@H]6CCCN6C(=O)[C@H](NC(=O)OC)c6ccccc6)[nH]5)cc4F)ncc3c2)[nH]1)C(C)C [compound 152],< 1
2,COC(=O)N[C@H](C(=O)N1CCC[C@H]1c1ncc(-c2ccc(-c3nc4ccc(-c5cnc([C@@H]6CCCN6C(=O)[C@@H](NC(=O)OC)C(C)C)[nH]5)cc4s3)cc2)[nH]1)C(C)C [compound 229],< 1
3,COC(=O)N[C@H](C(=O)N1CCC[C@H]1c1nc(-c2ccc3cc(-c4ccc(-c5cnc([C@@H]6CCCN6C(=O)[C@@H](NC(=O)OC)C(C)C)[nH]5)cn4)ccc3c2)c[nH]1)C(C)C [compound 13],< 1
4,COC(=O)N[C@@H](C(=O)N1CCC[C@H]1c1nc(-c2ccc3cc(-c4ccc(-c5cnc([C@@H]6CCCN6C(=O)[C@H](NC(=O)OC)C(C)C)[nH]5)cc4)ccc3c2)c[nH]1)C(C)C [compound 2],< 1
5,COC(=O)N[C@@H](C)C(=O)N1CCC[C@H]1c1nc2ccc(-c3ccc4cc(-c5ccc6nc([C@@H]7CCCN7C(=O)[C@H](C)NC(=O)OC)[nH]c6c5)ccc4c3)cc2[nH]1 [compound 278],< 1
6,COC(=O)N[C@H](C(=O)N1CCC[C@H]1c1ncc(-c2ccc3ccc(C45CCC(c6cnc([C@@H]7CCCN7C(=O)[C@@H](NC(=O)OC)C(C)C)[nH]6)(CC4)CC5)cc3c2)[nH]1)C(C)C [compound 261],1 to 9.9
7,COC(=O)N[C@H](C(=O)N1CCC[C@H]1c1nc(-c2ccc3nc(C45CCC(c6cnc([C@@H]7CCCN7C(=O)[C@@H](NC(=O)OC)C(C)C)[nH]6)(CC4)CC5)ccc3c2)c[nH]1)C(C)C [compound 262],< 1
8,COC(=O)N[C@H](C(=O)N1CCC[C@H]1c1ncc(-c2ccc(-c3ccc4cc(-c5cnc([C@@H]6COCCN6C(=O)[C@H](NC(=O)OC)c6ccccc6)[nH]5)ccc4c3)cc2)[nH]1)C(C)C [compound 132],< 1
9,COC(=O)N[C@H](C(=O)N1CCC[C@H]1c1ncc(-c2ccc3nc(-c4ccc(-c5cnc([C@@H]6CCCN6C(=O)[C@H](NC(=O)OC(C)(C)C)c6ccccc6)[nH]5)cc4)oc3c2)[nH]1)C(C)C [compound 254],< 1
10,COC(=O)N[C@H](C(=O)N1CCC[C@H]1c1nc(-c2ccc3cc(-c4ccc(-c5cnc([C@@H]6CCCN6C(=O)[C@H](NC(=O)OC)c6ccc(F)cc6)[nH]5)cc4)ccc3c2)c[nH]1)C1CCOCC1 [compound 111],< 1
11,COC(=O)N[C@H](C(=O)N1CCC[C@H]1c1ncc(-c2ccc3nc(-c4ccc(-c5cnc([C@@H]6CCCN6C(=O)[C@H](NC(=O)OC)c6ccccc6)[nH]5)cc4F)ccc3c2)[nH]1)C1CCOCC1 [compound 134],< 1
12,COC(=O)N[C@H](C(=O)N1CCC[C@H]1c1ncc(-c2ccc3nc(-c4ccc(-c5cnc([C@@H]6CCCN6C(=O)[C@H](NC(=O)OC(C)(C)C)c6ccccc6)[nH]5)cc4F)ccc3c2)[nH]1)C1CCOCC1 [compound 135],< 1
13,COC(=O)N[C@H](C(=O)N1CCC[C@H]1c1ncc(-c2ccc(N3Cc4cc(-c5cnc([C@@H]6CCCN6C(=O)[C@@H](NC(=O)OC)C(C)C)[nH]5)ccc4C3=O)cc2)[nH]1)C(C)C [compound 290],< 1
14,COC(=O)N[C@H](C(=O)N1CCC[C@H]1c1nc2ccc(-c3cccc4c(-c5cnc([C@@H]6CCCN6C(=O)[C@@H](NC(=O)OC)C6CCOCC6)[nH]5)cccc34)cc2[nH]1)C(C)C [compound 215],< 1
15,COC(=O)N[C@@H](C(=O)N1CCC[C@H]1c1nc(-c2ccc3c(c2)CCN(c2ccc(-c4cnc([C@@H]5CCCN5C(=O)[C@H](NC(=O)OC)c5ccccc5)[nH]4)cc2)C3=O)c[nH]1)c1ccccc1 [compound 289],< 1
16,COC(=O)N[C@@H](C(=O)N1CCC[C@H]1c1nc(-c2ccc3nc(-c4ccc(-c5cnc([C@@H]6CCCN6C(=O)[C@H](NC(=O)OC)c6ccccc6)[nH]5)cc4)cc(OC)c3c2)c[nH]1)c1ccccc1 [compound 78],< 1
17,COC(=O)N[C@H](C(=O)N1CCC[C@H]1c1ncc(-c2ccc3cc(-c4ccc(-c5cnc([C@@H]6CCCN6C(=O)[C@H](NC(=O)OC)c6ccccc6)[nH]5)cc4)ccc3c2)[nH]1)[C@@H](C)OC [compound 115],< 1
18,CNC(=O)N[C@@H](C(=O)N1CCC[C@H]1c1ncc(-c2ccc3nc(-c4ccc(-c5cnc([C@@H]6CCCN6C(=O)[C@@H](NC(=O)OC)C(C)C)[nH]5)cc4)oc3c2)[nH]1)c1ccccc1 [compound 251],< 1
19,COC(=O)N[C@H](C(=O)N1CCC[C@H]1c1nc2ccc(-c3ccc4cc(-c5cnc([C@@H]6CCCN6C(=O)[C@H](NC(=O)OC)c6ccccc6)[nH]5)ccc4c3)nc2[nH]1)C(C)C [compound 200],< 1
20,COC(=O)N[C@H](C(=O)N1CCC[C@H]1c1ncc(-c2ccc(-c3ccc4cc(-c5c[nH]c([C@@H]6CCCN6C(=O)[C@H](NC(=O)OC)c6ccccc6)n5)ccc4c3)c(F)c2)[nH]1)C(C)C [compound 67],< 1
21,COC(=O)N[C@@H](C(=O)N1CCC[C@H]1c1nc(-c2ccc3nc(C45CCC(c6cnc([C@@H]7CCCN7C(=O)[C@H](NC(=O)OC)c7ccccc7)[nH]6)(CC4)CC5)ccc3c2)c[nH]1)c1ccccc1 [compound 263],< 1

row,Structure (SMILES),EC50 [nM]
1,COC(=O)N[C@H](C(=O)N1CCC[C@H]1c1ncc(-c2ccc(-c3nc4ccc(-c5cnc([C@@H]6CCCN6C(=O)[C@H](NC(=O)OC)c6ccccc6)[nH]5)cc4o3)cc2)[nH]1)C(C)C [compound 249],< 1
2,COC(=O)N[C@H](C(=O)N1CCC[C@H]1c1ncc(-c2cccc3c(-c4ccc5nc([C@@H]6CCCN6C(=O)[C@@H](NC(=O)OC)C(C)C)[nH]c5c4)cccc23)[nH]1)C(C)C [compound 207],< 1
3,COC(=O)N[C@H](C(=O)N1C[C@H](O)C[C@H]1c1ncc(-c2ccc(-c3ccc4cc(-c5cnc([C@@H]6CCCN6C(=O)[C@H](NC(=O)OC)c6ccccc6)[nH]5)ccc4n3)cc2)[nH]1)C(C)C [compound 148],< 1
4,COC(=O)N[C@H](C(=O)N1CCC[C@H]1c1ncc(-c2ccc(-c3cc4ccc(-c5cnc([C@@H]6CCCN6C(=O)[C@@H](NC(=O)OC)C6CCOCC6)[nH]5)cc4cn3)cc2F)[nH]1)C(C)C [compound 128],< 1
5,COC(=O)N[C@H](C(=O)N1CCC[C@H]1c1nc2c([nH]1)-c1ccc(-c3cc4ccc(-c5cnc([C@@H]6CCCN6C(=O)[C@H](NC(=O)OC)c6ccccc6)[nH]5)cc4cn3)cc1CC2)C(C)C [compound 294],< 1
6,COC(=O)N[C@H](C(=O)N1CCC[C@H]1c1ncc(-c2ccc3cc(-c4ccc(-c5cnc([C@@H]6CCCN6C(=O)[C@@H](NC(=O)OC)C6CCOCC6)[nH]5)cc4F)ncc3c2)[nH]1)C(C)C [compound 151],< 1
7,COC(=O)N[C@H](C(=O)N1CCC[C@H]1c1nc2c([nH]1)-c1ccc(-c3cc4ccc(-c5cnc([C@@H]6CCCN6C(=O)[C@H](NC(=O)OC6CCOCC6)c6ccccc6)[nH]5)cc4cn3)cc1CC2)C(C)C [compound 295],< 1
8,COC(=O)N[C@H](C(=O)N1CCC[C@H]1c1ncc(-c2ccc(-c3ccc4cc(-c5cnc([C@@H]6CCCN6C(=O)[C@@H](NC(=O)OC)C6CCOCC6)[nH]5)ccc4c3)cc2)[nH]1)C1CCOCC1 [compound 133],< 1
9,CC[C@@H](C)[C@H](NC(=O)OC)C(=O)N1CCC[C@H]1c1ncc(-c2ccc(-c3ccc4cc(-c5cnc([C@@H]6CCCN6C(=O)[C@@H](NC(=O)OC)[C@H](C)CC)[nH]5)ccc4c3)cc2)[nH]1 [compound 142],< 1
10,CCNC(=O)N[C@@H](C(=O)N1CCC[C@H]1c1ncc(-c2ccc(-c3ccc4cc(-c5c[nH]c([C@@H]6CCCN6C(=O)[C@@H](NC(=O)OC)C(C)C)n5)ccc4n3)cc2)[nH]1)c1ccccc1 [compound 33],< 1
11,COC(=O)N[C@H](C(=O)N1CCC[C@H]1c1nc2ccc(-c3ccc4cc(-c5cnc([C@@H]6CCCN6C(=O)[C@H](NC(=O)OC)c6ccccc6)[nH]5)ccc4c3)cc2[nH]1)C(C)C [compound 179],< 1
12,COC(=O)N[C@H](C(=O)N1CCOC[C@H]1c1ncc(-c2ccc3cc(-c4ccc(-c5cnc([C@@H]6CCCN6C(=O)[C@H](NC(=O)OC)c6ccccc6)[nH]5)cc4)ccc3c2)[nH]1)C(C)C [compound 138],< 1
13,COC(=O)N[C@H](C(=O)N1CCC[C@H]1c1nc2ccc(-c3ccc4cc(-c5cnc([C@@H]6CCCN6C(=O)[C@H](NC(=O)N6CC[C@H](O)C6)c6ccccc6)[nH]5)ccc4c3)cc2[nH]1)C(C)C [compound 183],< 1
14,CCNC(=O)N[C@@H](C(=O)N1CCC[C@H]1c1ncc(-c2ccc(-c3ccc4cc(-c5c[nH]c([C@@H]6CCCN6C(=O)[C@@H](NC(=O)OC)C(C)C)n5)ccc4c3)cc2)[nH]1)c1ccccc1 [compound 27],< 1
15,COC(=O)N[C@H](C(=O)N1CCC[C@H]1c1nc(-c2ccc3nc(N4CCC(c5cnc([C@@H]6CCCN6C(=O)[C@@H](NC(=O)OC)C(C)C)[nH]5)CC4)ccc3c2)c[nH]1)C(C)C [compound 275],< 1
16,COC(=O)N[C@H](C(=O)N1CCC[C@H]1c1nc(-c2cnc3cc(-c4ccc(-c5cnc([C@@H]6CCCN6C(=O)[C@@H](NC(=O)OC)C(C)C)[nH]5)cc4)ccc3c2)c[nH]1)C(C)C [compound 19],< 1
17,COC(=O)N[C@H](C(=O)N1CCC[C@H]1c1ncc(-c2ccc(-c3ccc4cc(-c5c[nH]c([C@@H]6CCCN6C(=O)[C@@H](NC(=O)OC)C6CCOCC6)n5)cnc4c3)cn2)[nH]1)C(C)C [compound 95],< 1
18,COC(=O)N[C@H](C(=O)N1CCC[C@H]1c1ncc(-c2ccc(-c3cnc4ccc(-c5cnc([C@@H]6CCCN6C(=O)[C@@H](NC(=O)OC)C(C)C)[nH]5)cc4n3)cc2)[nH]1)C(C)C [compound 12],1 to 9.9
19,COC(=O)N[C@H](C(=O)N1CCC[C@H]1c1nc(-c2ccc3nc(-c4ccc(-c5cnc([C@@H]6CCCN6C(=O)[C@@H](NC(=O)OC)[C@@H](C)OC)[nH]5)cc4)ccc3c2)c[nH]1)C(C)C [compound 43],< 1
20,COC(=O)N[C@H](C(=O)N1CCC[C@H]1c1nc2ccc(-c3ccc4nc(-c5ccc6nc([C@@H]7CCCN7C(=O)[C@@H](NC(=O)OC)C(C)C)[nH]c6c5)ccc4c3)cc2[nH]1)C(C)C [compound 280],< 1
